Source: PubChem BioAssay (NCI)
“And” between values parts separate entries of the source, which are not always exact repeats. Equal values may be shown once.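 Method: 48-hour compound exposure of cells in 96-well plates, five concentrations, linear interpolation of endpoints. At the GI50, growth is halved. TGI denotes the concentration required for complete inhibition of growth.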

How the values were obtained:
Assay in all cases: DTP human tumour cell line panel, 48 h
COLO 205 colon = test system: COLO 205 colon
MDA-MB-435 = test system: MDA-MB-435
SK-MEL-28 melanoma = test system: SK-MEL-28 melanoma
RPMI-8226 leukemia = test system: RPMI-8226 leukemia
UACC-62 melanoma = test system: UACC-62 melanoma
MCF7 breast = test system: MCF7 breast
SW-620 colon = test system: SW-620 colon
SR leukemia = test system: SR leukemia
EKVX NSCLC = test system: EKVX NSCLC
T-47D breast = test system: T-47D breast
A549 NSCLC = test system: A549 NSCLC
UO-31 renal = test system: UO-31 renal
SF-539 CNS = test system: SF-539 CNS
A498 renal = test system: A498 renal
HCT-15 colon = test system: HCT-15 colon
HOP-92 NSCLC = test system: HOP-92 NSCLC
HL-60(TB) leukemia = test system: HL-60(TB) leukemia
HS 578T breast = test system: HS 578T breast
NCI-H23 lung = test system: NCI-H23 lung
U251 CNS = test system: U251 CNS
HCT-116 colon = test system: HCT-116 colon
OVCAR-4 ovarian = test system: OVCAR-4 ovarian
CAKI-1 renal = test system: CAKI-1 renal
NCI-H226 lung = test system: NCI-H226 lung
786-0 renal = test system: 786-0 renal
IGROV1 ovarian = test system: IGROV1 ovarian
SNB-19 CNS = test system: SNB-19 CNS
SNB-75 CNS = test system: SNB-75 CNS
ACHN renal = test system: ACHN renal
SN12C renal = test system: SN12C renal
CCRF-CEM leukemia = test system: CCRF-CEM leukemia
OVCAR-3 ovarian = test system: OVCAR-3 ovarian
LOX IMVI melanoma = test system: LOX IMVI melanoma
OVCAR-5 ovarian = test system: OVCAR-5 ovarian
NCI-H522 lung = test system: NCI-H522 lung
SF-268 CNS = test system: SF-268 CNS
TK-10 renal = test system: TK-10 renal
HOP-62 NSCLC = test system: HOP-62 NSCLC
DU-145 prostate = test system: DU-145 prostate
MOLT-4 leukemia = test system: MOLT-4 leukemia
NCI-H460 lung = test system: NCI-H460 lung
HT29 colon = test system: HT29 colon
PC-3 prostate = test system: PC-3 prostate
MALME-3M melanoma = test system: MALME-3M melanoma
OVCAR-8 ovarian = test system: OVCAR-8 ovarian
SK-OV-3 ovarian = test system: SK-OV-3 ovarian
SK-MEL-5 melanoma = test system: SK-MEL-5 melanoma
RXF 393 renal = test system: RXF 393 renal
M14 melanoma = test system: M14 melanoma
BT-549 breast = test system: BT-549 breast
UACC-257 melanoma = test system: UACC-257 melanoma
KM12 colon = test system: KM12 colon
SF-295 CNS = test system: SF-295 CNS
MDA-MB-231 breast = test system: MDA-MB-231 breast
K-562 leukemia = test system: K-562 leukemia
NCI/ADR-RES ovarian = test system: NCI/ADR-RES ovarian
SK-MEL-2 melanoma = test system: SK-MEL-2 melanoma
HCC-2998 colon = test system: HCC-2998 colon

## CC1(COc2ccc3c(c2)ncn3-c2ccc3cccc(N4CCC(N)CC4)c3n2)COC1
COLO 205 colon
  GI50: 1.09 µM and 1.02 µM
  TGI: 2.44 µM and 2.86 µM
MDA-MB-435
  GI50: 3.06 µM and 3.25 µM
  TGI: 10.5 µM and > 10 µM
SK-MEL-28 melanoma
  GI50: 3.5 µM and 3.37 µM
  TGI: 9.34 µM and 8.36 µM
RPMI-8226 leukemia
  GI50: 2.08 µM and 1.88 µM
  TGI: 5.29 µM and 5.21 µM
UACC-62 melanoma
  GI50: 16.7 µM and > 10 µM
  TGI: 34.4 µM and > 10 µM
MCF7 breast
  GI50: 2.17 µM and 2.2 µM
  TGI: 6.54 µM and 7.83 µM
SW-620 colon
  GI50: 3.09 µM and 2.52 µM
  TGI: 11 µM and > 10 µM
SR leukemia
  GI50: 0.769 µM and 0.347 µM
  TGI: 4.7 µM and 2.4 µM
EKVX NSCLC
  GI50: 3.02 µM and 3.28 µM
  TGI: 13.2 µM and > 10 µM
T-47D breast
  GI50: 15.9 µM and > 10 µM
  TGI: 30.5 µM and > 10 µM
A549 NSCLC
  GI50: 1.83 µM and 2.39 µM
  TGI: 4.45 µM and > 10 µM
UO-31 renal
  GI50: 1.78 µM and 0.822 µM
  TGI: 5.12 µM and 7.4 µM
SF-539 CNS
  GI50: 1.26 µM and 1.01 µM
  TGI: 2.65 µM and 2.59 µM
A498 renal
  GI50: 5.01 µM and 2.03 µM
  TGI: 10.7 µM and 4.27 µM
HCT-15 colon
  GI50: 3.37 µM and 2.92 µM
  TGI: 12.3 µM and > 10 µM
HOP-92 NSCLC
  GI50: 10.3 µM and 3.27 µM
  TGI: 25.7 µM and > 10 µM
HL-60(TB) leukemia
  GI50: 1.82 µM and 1.8 µM
  TGI: 4.54 µM and 4.49 µM
HS 578T breast
  GI50: 2.08 µM and 0.385 µM
  TGI: 15.3 µM and 4.77 µM
NCI-H23 lung
  GI50: 2.13 µM and 1.94 µM
  TGI: 8.59 µM and 5.28 µM
U251 CNS
  GI50: 1.7 µM and 1.87 µM
  TGI: 4.09 µM and 5.66 µM
HCT-116 colon
  GI50: 0.894 µM and 1.03 µM
  TGI: 5.35 µM and > 10 µM
OVCAR-4 ovarian
  GI50: 2.89 µM and 3.53 µM
  TGI: 8.15 µM and > 10 µM
CAKI-1 renal
  GI50: 4.75 µM and 3.55 µM
  TGI: 19.6 µM and > 10 µM
NCI-H226 lung
  GI50: 3.18 µM and 2.54 µM
  TGI: 9.32 µM and > 10 µM
786-0 renal
  GI50: 1.8 µM and 1.75 µM
  TGI: 4.63 µM and 3.85 µM
IGROV1 ovarian
  GI50: 4.07 µM and 2.57 µM
  TGI: 14 µM and > 10 µM
SNB-19 CNS
  GI50: 4.35 µM and 3.36 µM
  TGI: 13.2 µM and > 10 µM
SNB-75 CNS
  GI50: 0.734 µM
  TGI: 5.65 µM
ACHN renal
  GI50: 2.61 µM and 2.24 µM
  TGI: > 10 µM
SN12C renal
  GI50: 0.945 µM and 1.12 µM
  TGI: 15.3 µM and > 10 µM
CCRF-CEM leukemia
  GI50: 2.02 µM and 1.39 µM
  TGI: 6.44 µM and 5.86 µM
OVCAR-3 ovarian
  GI50: 2.35 µM and 2.99 µM
  TGI: 4.73 µM and > 10 µM
LOX IMVI melanoma
  GI50: 1.4 µM and 1.16 µM
  TGI: 3.97 µM and > 10 µM
OVCAR-5 ovarian
  GI50: 3.26 µM and 2.57 µM
  TGI: 12.8 µM and > 10 µM
NCI-H522 lung
  GI50: 1.21 µM and 1.6 µM
  TGI: 3.3 µM and 5.19 µM
SF-268 CNS
  GI50: 2.74 µM and 2.85 µM
  TGI: 9.15 µM and > 10 µM
TK-10 renal
  GI50: 1.97 µM and 2.56 µM
  TGI: 6.73 µM and > 10 µM
HOP-62 NSCLC
  GI50: 1.74 µM and 1.49 µM
  TGI: 6.59 µM and 9.02 µM
DU-145 prostate
  GI50: 2.19 µM and 1.5 µM
  TGI: 13 µM and > 10 µM
MOLT-4 leukemia
  GI50: 1.56 µM and 1.51 µM
  TGI: 5.71 µM and 5.97 µM
NCI-H460 lung
  GI50: 2.17 µM and 2.48 µM
  TGI: 6.11 µM and 7.46 µM
HT29 colon
  GI50: 2.92 µM and 3.29 µM
  TGI: 7.99 µM and > 10 µM
PC-3 prostate
  GI50: 5.38 µM and 3.54 µM
  TGI: 21.6 µM and > 10 µM
MALME-3M melanoma
  GI50: 3.23 µM and 1.86 µM
  TGI: 6.46 µM and 3.74 µM
OVCAR-8 ovarian
  GI50: 2.82 µM and 2.84 µM
  TGI: 10.7 µM and > 10 µM
SK-OV-3 ovarian
  GI50: 15.5 µM and > 10 µM
  TGI: 29.2 µM and > 10 µM
SK-MEL-5 melanoma
  GI50: 2.31 µM and 2.12 µM
  TGI: 6.7 µM and 5.22 µM
RXF 393 renal
  GI50: 1.32 µM and 0.893 µM
  TGI: 3.3 µM and 2.71 µM
M14 melanoma
  GI50: 3.55 µM and 2.68 µM
  TGI: 10.1 µM and 6.77 µM
BT-549 breast
  GI50: 2.8 µM and 2.64 µM
  TGI: 12.7 µM and 9.74 µM
UACC-257 melanoma
  GI50: 2.7 µM
  TGI: 5.36 µM and 5.55 µM
KM12 colon
  GI50: 0.0519 µM and 0.118 µM
  TGI: 5.74 µM and > 10 µM
SF-295 CNS
  GI50: 5.75 µM and 2.88 µM
  TGI: 19.4 µM and > 10 µM
MDA-MB-231 breast
  GI50: 2.55 µM and 1.88 µM
  TGI: 8.69 µM and 7.63 µM
K-562 leukemia
  GI50: 2.1 µM and 1.94 µM
  TGI: 8.36 µM and 8.92 µM
NCI/ADR-RES ovarian
  GI50: 7.04 µM and > 10 µM
  TGI: 20.6 µM and > 10 µM
SK-MEL-2 melanoma
  GI50: 4.96 µM and 3.29 µM
  TGI: 11.9 µM and 6.85 µM
HCC-2998 colon
  GI50: 2.7 µM and 2.25 µM
  TGI: 7.51 µM and 7.85 µM
